In the assay the test system is Schistosoma mansoni. The experiment in a line: Antischistosomal activity against Schistosoma mansoni assessed as worm survival incubated for overnight followed by drug washout measured on day 7. It counts as functional.

In the case of `COc1cc2c(cc1OC)C1CN(C(=O)c3ccc(C(F)(F)F)cc3)CC(=O)N1CC2` (stereo not given), the LC90 is over 100 µM. In the case of `O=C1C(=O)N2CCc3ccccc3C2CN1C(=O)C1CCCC1` (stereo not given), the LC90 was over 100 µM. With `O=C(C1CCCC1)N1CC(=O)N2CCc3ccccc3C2C1` (stereo not given), the LC90 came to 10 µM. With `O=C1C(=O)N2CCc3c(n(Cc4ccccc4)c4ccccc34)C2CN1C(=O)C1CCCCC1` (stereo not given), the LC90 is over 100 µM.

Consider `COc1cc2c(cc1OC)C1CN(C(=O)C3CCCC3)CC(=O)N1CC2` (stereo not given), for which the LC90 was 25 µM. With `O=C1C(=O)N2CCc3c(n(Cc4ccccc4)c4ccccc34)C2CN1C(=O)C1CCCC1` (stereo not given) the figure was over 100 µM; with `O=C(CC1CCCCC1)N1CC2c3c(c4ccccc4n3Cc3ccccc3)CCN2C(=O)C1=O` (stereo not given), over 100 µM; with `O=C1C(=O)N2CCc3ccccc3C2CN1C(=O)c1ccc(C(F)(F)F)cc1` (stereo not given), over 100 µM.

As for `COc1cc2c(cc1OC)C1CN(S(=O)(=O)c3ccc(C)cc3)CC(=O)N1CC2` (stereo not given), the LC90 was over 100 µM. For `O=C1C(=O)N2CCc3ccccc3C2CN1C(=O)C1CCCCC1` (stereo not given), the LC90 was over 100 µM.

Regarding `O=C(c1ccc(C(F)(F)F)cc1)N1CC(=O)N2CCc3c([nH]c4ccccc34)C2C1` (stereo not given), the LC90 came out at 50 µM.

On to `O=C(c1ccc(C(F)(F)F)cc1)N1CC(=O)N2CCc3c(n(Cc4ccccc4)c4ccccc34)C2C1` (stereo not given), for which the LC90 was over 100 µM. In the case of `Cc1ccc(S(=O)(=O)N2CC3c4ccccc4CCN3C(=O)C2=O)cc1` (stereo not given), the LC90 is over 100 µM. As to `COc1cc2c(cc1OC)C1CN(C(=O)C3CCCCC3)CC(=O)N1CC2` (stereo not given), the LC90 stood at 50 µM.

As to `O=C1C(=O)N2CCc3c(n(Cc4ccccc4)c4ccccc34)C2CN1C(=O)c1ccc(C(F)(F)F)cc1` (stereo not given), the LC90 was over 100 µM.

In the case of `O=C(C1CCCCC1)N1CC(=O)N2CCc3ccccc3C2C1` (stereo not given) [PRAZIQUANTEL], the LC90 was 3 µM.

Consider `O=C(CC1CCCCC1)N1CC2c3ccccc3CCN2C(=O)C1=O` (stereo not given), for which the LC90 is over 100 µM.

For `Cc1ccc(S(=O)(=O)N2CC(=O)N3CCc4ccccc4C3C2)cc1` (stereo not given), the LC90 is over 10 µM.

As for `O=C(C1CCCCC1)N1CC(=O)N2CCc3c(n(Cc4ccccc4)c4ccccc34)C2C1` (stereo not given), the LC90 amounted to 25 µM. Turning to `O=C(C1CCCCC1)N1CC(=O)N2CCc3c([nH]c4ccccc34)C2C1` (stereo not given), the LC90 amounted to 25 µM.

Values taken from ChEMBL document CHEMBL1938396, “Synthesis of new praziquantel analogues: potential candidates for the treatment of schistosomiasis” (2012).
